Assay results: patent US7008632B2, “Combination of biological and chemical agents to combat rodents” (priority 2000, dated 2006)
Marks after values point to notes of the source that are not given here.

Experiments:
[1] = tested on: Rattus norvegicus; details: non-resistant rats; cited from earlier work
[2] = tested on: feral adult brown rats (Rattus norvegicus); experiment: Experiment using feral adult brown rats: mortality after gavage of sporocysts, coumatetralyl or the combination; type: in vivo; details: single gavage; 10 000 sporocysts and/or 6 mg of coumatetralyl per kg of body weight
Experimental: Experiment Using Feral Adult Brown Rats (Rattus norvegicus)
The mortality was determined.
The rats were raised under standard conditions in the laboratory. During the experiment and the 2-week preparation, they were kept individually in cages made of Makrolon. Sporocyst suspension and coumatetralyl were administered by gavage, and during the administration the animals were anesthetized lightly using diethyl ether.

For `O=c1oc2ccccc2c(O)c1C1CC(c2ccc(-c3ccc(Br)cc3)cc2)Cc2ccccc21` (stereo not drawn) [brodifacoum], the “LD50 (acute oral)” value [1] is given as 0.2 mg/kg.

With `O=c1oc2ccccc2c(O)c1C1CCCc2ccccc21` (stereo not drawn) [coumatetralyl, 3-(1′,2′,3′,4′-tetrahydro-1′-naphthyl)-4-hydroxycoumarin] the Mortality % [2] was 17* %.

For `O=c1oc2ccccc2c(O)c1C(CC(O)c1ccc(-c2ccc(Br)cc2)cc1)c1ccccc1` (stereo not drawn) [bromadiolone, 3-(4′-hydroxy-3′-coumarinyl)-3-phenyl-1-(4′-bromo-4′-biphenyl)-propan-1-ol], the “LD50 (acute oral)” value [1] is given as 2.0 mg/kg.
